# Reference: BindingDB's records for patent US11414428 (Auckland UniServices Limited, 2022)
# Molecular target: Indoleamine 2,3-dioxygenase 1 (Homo sapiens, UniProt P14902)
# Assay: Enzymatic Assay
# Method: Recombinant human IDO1 (rhIDO1) was expressed and purified from cultures of EC538 strain of E. coli transformed with pREP4 and pQE9-IDO plasmid. Reaction mixes were set up in 384-well microplates containing 50 mM phosphate buffer, 10 mM ascorbic, 10 μM methylene blue, 100 μg/mL catalase, 80 μM TRP, 0.01% Tween 20 (v/v) mixed with rhIDO1 (15 μL) at a final concentration of 9 nM in a total volume of 30 μL assay medium. The plates were incubated at 37° C. for 30 min, and the enzymatic reaction was terminated by adding piperidine (200 mM) and heated at 65° C. for 20 min. Fluorescence intensity was read at λex 400 nm and λem 500 nm. Test compounds were dissolved in 100% DMSO and pre-diluted in assay medium prior to adding rhIDO1.
# Chain of Indoleamine 2,3-dioxygenase 1 (P14902 whole entry): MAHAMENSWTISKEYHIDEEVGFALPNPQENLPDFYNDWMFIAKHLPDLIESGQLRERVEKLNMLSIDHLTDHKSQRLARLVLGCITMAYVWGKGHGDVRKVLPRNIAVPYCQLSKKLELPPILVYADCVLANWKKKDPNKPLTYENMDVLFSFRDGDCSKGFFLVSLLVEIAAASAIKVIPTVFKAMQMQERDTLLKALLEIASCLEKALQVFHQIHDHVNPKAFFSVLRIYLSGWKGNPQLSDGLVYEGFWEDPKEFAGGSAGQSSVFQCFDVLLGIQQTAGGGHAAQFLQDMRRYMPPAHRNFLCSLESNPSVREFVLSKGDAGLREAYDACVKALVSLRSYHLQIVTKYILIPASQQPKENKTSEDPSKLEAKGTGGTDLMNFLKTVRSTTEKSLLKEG
structure (smiles),measurement,value
"Cc1nc2onc(N)c2c(C)c1Cl [US11414428, Compound 1]",IC50,in the range around 5.5 µM
